Laboratory results: US12116359B2, “EBNA1 inhibitor crystalline forms, and methods of preparing and using same” (THE WISTAR INSTITUTE, priority 2018, dated 2024)
Entries after “also recorded” stand apart in the source; their conditions may differ.

Legend:
Type in all cases: physicochemical
[1] = Gravimetric vapour sorption (GVS); conditions: for Hygroscopicity: GVS, 0-90% RH
Procedure: Sorption isotherms were obtained using a SMS DVS Intrinsic moisture sorption analyzer, controlled by DVS Intrinsic Control software. The sample temperature was maintained at 25° C. by instrument controls. The humidity was controlled by mixing streams of dry and wet nitrogen, with a total flow rate of 200 ml/min. The relative humidity was measured by a calibrated Rotronic probe (dynamic range of 1.0-100% RH), located near the sample. The weight change (mass relaxation) of the sample as a function of % RH was constantly monitored by the microbalance (accuracy ±0.005 mg). Typically 5-20 mg of sample was placed in a tared mesh stainless steel basket under ambient conditions. The sample was loaded and unloaded at 40% RH and 25° C. (typical room conditions). A moisture sorption isotherm was performed as outlined below (2 scans giving 1 complete cycle). The standard isotherm was performed at 25° C. at 10% RH intervals over a 0-90% RH range. Data analysis was carried out using Microsoft Excel. The sample was recovered after completion of the isotherm and re-analyzed by XRPD.

[2] = Stability assessment of Pattern 5 slurried in solvents at 4 or 50° C.; conditions: for Solid form recovered in stability assessment: 4 and 50° C., 8 solvents including solvent mixtures, XRPD; for Observations Overnight at 4° C. maturation / Observations Overnight at 50° C. maturation: 16 h
Procedure: The aim of this set of experiments was to test the stability of Pattern 5 in different conditions by slurring the material at either 4 or 50° C. in a range of 8 selected solvents including mixtures.
The supplied material was dissolved or suspended in the chosen solvent at r.t. Solvents were added in 10 vol. aliquots up to 30 vol. and observations were recorded; if a solution was obtained at any point then no further additions were made. Samples were kept at 4° C. or 50° C. over 16 h, and analyzed by XRPD. The solids were filtered and analyzed by XRPD. The solutions were allowed to evaporate at r.t. to afford solids which were also analyzed by XRPD.

[3] = Storage stability of solid forms at elevated temperature/humidity (XRPD, HPLC purity); conditions: one week
Procedure: Purity analysis was performed on an Agilent HP1100 series system equipped with a diode array detector and using ChemStation software vB.04.03 using the method detailed in Table 1.
Amorphous (I) free acid was stored at 40° C./75% RH (open vial), 25° C./97% RH (open vial) and 60° C. (closed vial, ambient humidity) for 8 weeks.
Characterization by XRPD, ^1H NMR, TGA, DSC and storage at 40° C./75% RH for one week was carried out. Details are found in Table 10.

[4] = Variable temperature XRPD; conditions: 25-165° C.
Procedure: Samples run under non-ambient conditions were mounted on a silicon wafer with heat-conducting compound. The sample was then heated to the appropriate temperature at 30° C./min and subsequently held isothermally for 1 minute before data collection was initiated.

[5] = Storage stability of solid forms at elevated temperature/humidity (XRPD, HPLC purity); conditions: 25° C./97% RH, one week; listed as Crystalline Pattern 5
[6] = listed as Crystalline Pattern 5
[7] = EtOAc, solid after evaporation at r.t.
[8] = EtOAc/EtOH (1:3), solid after evaporation at r.t.
[9] = EtOAc/EtOH (3:1), solid after evaporation at r.t.

Structure (SMILES): O=C(O)c1cccc(C#Cc2ccc(COC3CCOCC3)cc2)c1-c1ccc2cc[nH]c2c1 [Pattern 5, 2-(1H-Indol-6-yl)-3-[4-(tetrahydro-pyran-4-yloxymethyl)-phenylethynyl]-benzoic acid]
- Hygroscopicity [1]: non-hygroscopic
- Hygroscopicity [1, 6]: non-hygroscopic; also recorded: not hygroscopic
- XRPD after GVS ([1]; after 0-90% RH isotherm, listed as Crystalline Pattern 5): Unchanged by XRPD
- GVS moisture uptake ([1]; between 0-90% RH, 25° C., listed as Crystalline Pattern 5): 0.3%
- Solid form recovered in stability assessment [2]: no change in solid form
- Solid form recovered in stability assessment [2, 6]: Pattern 5 being recovered in all cases
- Observations Overnight at 4° C. maturation ([2]; EtOAc): solution
- XRPD after stability assessment at 4° C. [2, 7]: Pattern 5
- Observations Overnight at 50° C. maturation ([2]; EtOAc): solution
- XRPD after stability assessment at 50° C. [2, 7]: Pattern 5
- Observations Overnight at 4° C. maturation ([2]; EtOAc/EtOH (1:3)): solution
- XRPD after stability assessment at 4° C. [2, 8]: Pattern 5
- Observations Overnight at 50° C. maturation ([2]; EtOAc/EtOH (1:3)): solution + yellow solid
- XRPD after stability assessment at 50° C. [2, 8]: Pattern 5
- Observations Overnight at 4° C. maturation ([2]; EtOAc/EtOH (3:1)): solution
- XRPD after stability assessment at 4° C. [2, 9]: Pattern 5
- Observations Overnight at 50° C. maturation ([2]; EtOAc/EtOH (3:1)): solution + yellow solid
- XRPD after stability assessment at 50° C. [2, 9]: Pattern 5
- XRPD after stability assessment at 4° C. ([2]; EtOH): Pattern 5
- Observations Overnight at 4° C. maturation ([2]; EtOH): White Suspension
- Observations Overnight at 50° C. maturation ([2]; EtOH): solution
- XRPD after stability assessment at 50° C. ([2]; EtOH, solid after evaporation at r.t.): Pattern 5
- XRPD after stability assessment at 4° C. ([2]; Heptane): Pattern 5
- Observations Overnight at 4° C. maturation ([2]; Heptane): White Suspension
- XRPD after stability assessment at 50° C. ([2]; Heptane): Pattern 5
- Observations Overnight at 50° C. maturation ([2]; Heptane): White Suspension
- XRPD after stability assessment at 4° C. ([2]; IPA): Pattern 5
- Observations Overnight at 4° C. maturation ([2]; IPA): White Suspension
- Observations Overnight at 50° C. maturation ([2]; IPA): solution + yellow solid
- XRPD after stability assessment at 50° C. ([2]; IPA, solid after evaporation at r.t.): Pattern 5
- XRPD after stability assessment at 4° C. ([2]; MIBK): Pattern 5
- Observations Overnight at 4° C. maturation ([2]; MIBK): Off-White Suspension
- Observations Overnight at 50° C. maturation ([2]; MIBK): solution
- XRPD after stability assessment at 50° C. ([2]; MIBK, solid after evaporation at r.t.): Pattern 5
- XRPD after stability assessment at 4° C. ([2]; TBME): Pattern 5
- Observations Overnight at 4° C. maturation ([2]; TBME): White Suspension
- XRPD after stability assessment at 50° C. ([2]; TBME): Pattern 5
- Observations Overnight at 50° C. maturation ([2]; TBME): White Suspension
- XRPD post 25° C./97% RH ([3]; 25° C./97% RH): remained unchanged by XRPD
- HPLC Purity after storage at 25° C./97% RH (Pharmorphix generic method) ([3]; 25° C./97% RH, initial purity 98.3% A.U.C.): 98.0 % A.U.C.
- XRPD post 40° C./75% RH ([3]; 40° C./75% RH): remained unchanged by XRPD
- HPLC Purity after storage at 40° C./75% RH (Pharmorphix generic method) ([3]; 40° C./75% RH, initial purity 98.3% A.U.C.): 98.0 % A.U.C.
- XRPD post 40° C./75% RH ([3]; 40° C./75% RH, listed as Crystalline Pattern 5): No change in crystalline form; also recorded: Unchanged
- Variable temperature XRPD [4]: remained as Pattern 5
- Variable temperature XRPD [4, 6]: Remained as Pattern 5 from 25-165 °C
- XRPD post 25° C./97% RH [5]: No change in crystalline form; also recorded: Unchanged
